Assays:
EBC-1 tumor cells = experiment: EBC-1 non-small cell lung cancer (NSCLC) model (Example 11); type: in vivo, mice; conditions: birinapant 30 mg/kg i.p. every 3 days, alone or with Mab A 5 mg/kg i.v.; n=10 animals/group
Description: 3×10^6 EBC-1 tumor cells were implanted subcutaneously in the flanks of female BALB/c nude mice.

SK-MEL-5 = experiment: Cell Titer Glo viability, Mab A + SMAC mimetics (Example 13); type: cell-based; conditions: SMAC mimetic in combination with Mab A
Experimental: (§1) Synergy was determined as described in earlier examples. The average Bliss synergy scores for combinations of Mab A and SMAC mimetic on the various tumor cell lines are shown in Table 15.

HCT 116 [1] = experiment: as above; type: cell-based; conditions: SMAC mimetic in combination with Mab A
Experimental: as §1

OVCAR-4 = experiment: as above; type: cell-based; conditions: SMAC mimetic in combination with Mab A
Experimental: as §1

EBC-1 = experiment: as above; type: cell-based; conditions: SMAC mimetic in combination with Mab A
Experimental: as §1

HT 1080 [2] = experiment: as above; type: cell-based; conditions: SMAC mimetic in combination with Mab A
Experimental: as §1

SW1353 [3] = experiment: as above; type: cell-based; conditions: SMAC mimetic in combination with Mab A
Experimental: as §1

KYSE-70 = experiment: Cell Titer Glo viability, Mab A + birinapant, head and neck tumor cell lines (Example 12); type: cell-based; conditions: KYSE-70 head and neck cancer cell line
Experimental: (§2) Exemplary cell viability curves for combinations of anti-DR5 IgM Mab A with birinapant on Detroit 562 and KYSE270 are shown in FIGS. 22A and 22C, respectively. Synergy was determined as described in earlier examples. […] The Average Bliss synergy scores for combinations of Mab A and birinapant on the various head and neck tumor cell lines are shown in Table 14.

KYSE410 = experiment: as above; type: cell-based; conditions: KYSE410 head and neck cancer cell line
Experimental: as §2

8505C = experiment: as above; type: cell-based; conditions: 8505C head and neck cancer cell line
Experimental: as §2

KYSE150 = experiment: as above; type: cell-based; conditions: KYSE150 head and neck cancer cell line
Experimental: as §2

A253 = experiment: as above; type: cell-based; conditions: A253 head and neck cancer cell line
Experimental: as §2

OE19 = experiment: as above; type: cell-based; conditions: OE19 head and neck cancer cell line
Experimental: as §2

Detroit 562 = experiment: as above; type: cell-based; conditions: Detroit 562 head and neck cancer cell line
Experimental: as §2

8305C = experiment: as above; type: cell-based; conditions: 8305C head and neck cancer cell line
Experimental: as §2

KYSE270 = experiment: as above; type: cell-based; conditions: KYSE270 head and neck cancer cell line
Experimental: as §2

TE-1 = experiment: as above; type: cell-based; conditions: TE-1 head and neck cancer cell line
Experimental: as §2

FaDu = experiment: as above; type: cell-based; conditions: FaDu head and neck cancer cell line
Experimental: as §2

MDA-MB-231 tumor cells = experiment: Cell Titer Glo viability, Mab A + SMAC mimetic (Example 7); conditions: MDA-MB-231 cells; 72 hours
[4] = tested on: DR5 agonist-resistant MDA-MB-231 cells; experiment: Cell Titer Glo viability, Mab A + SMAC mimetic on DR5 agonist-resistant tumor cells (Example 8); type: cell-based
SA3840 tumor fragments = experiment: SA3840 osteosarcoma PDX model (Example 11); type: in vivo, mice; conditions: birinapant 30 mg/kg i.p., alone or with Mab A 5 mg/kg i.v.; n=5 animals/group
SW780 = experiment: Cell Titer Glo viability, Mab A + birinapant (Example 10); type: cell-based; conditions: SW780 (Bladder)
Experimental: (§3) Cell viability curves for combinations of anti-DR5 IgM Mab A with birinapant on A2058, BT-20, DV-90, ES-2, HCC15, HCT 116, HT 1080, KYSE 410, MEWO, OVCAR-5, SK-LU-1, SK-MEL-5, SNU-1, SW780, SW1353, and T24 are shown in FIGS. 19A, 19C, 19E, 19G, 19I, 19K, 19M, 19O, 19Q, 19S, 19U, 19W, 19Y, 19AA, 19AC, and 19AE, respectively. Synergy was determined as described in earlier examples.

MEWO = experiment: as above; type: cell-based; conditions: MEWO (Melanoma)
Experimental: as §3

BT-20 = experiment: as above; type: cell-based; conditions: BT-20 (TNBC)
Experimental: as §3

HCC15 = experiment: as above; type: cell-based; conditions: HCC15 (Lung)
Experimental: as §3

OVCAR-5 = experiment: as above; type: cell-based; conditions: OVCAR-5 (Ovarian)
Experimental: as §3

T24 = experiment: as above; type: cell-based; conditions: T24 (Bladder)
Experimental: as §3

HCT 116 [5] = experiment: as above; type: cell-based; conditions: HCT 116 (Colorectal)
Experimental: as §3

KYSE 410 = experiment: as above; type: cell-based; conditions: KYSE 410 (Esophageal)
Experimental: as §3

SNU-1 = experiment: as above; type: cell-based; conditions: SNU-1 (Gastric)
Experimental: as §3

A2058 = experiment: as above; type: cell-based; conditions: A2058 (Melanoma)
Experimental: as §3

HT 1080 [6] = experiment: as above; type: cell-based; conditions: HT 1080 (Fibrosarcoma)
Experimental: as §3

SW1353 [7] = experiment: as above; type: cell-based; conditions: SW1353 (Chondrosarcoma)
Experimental: as §3

ES-2 = experiment: as above; type: cell-based; conditions: ES-2 (Ovarian)
Experimental: as §3

**Q.** Which results are given for `CC[C@H](NC(=O)[C@H](C)NC)C(=O)N1C[C@@H](O)C[C@H]1Cc1c(-c2[nH]c3cc(F)ccc3c2C[C@@H]2C[C@H](O)CN2C(=O)[C@H](CC)NC(=O)[C@H](C)NC)[nH]c2cc(F)ccc12` [birinapant, Birinapant]?
**A.** mice that missed doses due to body weight loss (EBC-1 tumor cells): 3 mice; Average Bliss score (SK-MEL-5): 14; Average Bliss score (HCT 116 [1]): 31; Average Bliss score (OVCAR-4): 14; Average Bliss score (EBC-1): 39; Average Bliss score (HT 1080 [2]): 30; Average Bliss score (SW1353 [3]): −0.6; Average Bliss score (KYSE-70): 25; Average Bliss score (KYSE410): 35; Average Bliss score (8505C): 10; Average Bliss score (KYSE150): 0.2; Average Bliss score (A253): 26; Average Bliss score (OE19): 17; Average Bliss score (Detroit 562): 36; Average Bliss score (8305C): 27; Average Bliss score (KYSE270): 15; Average Bliss score (TE-1): 29; Average Bliss score (FaDu): 16; single agent cytotoxicity (cell viability curves) (MDA-MB-231 tumor cells): little to no cytotoxicity; single agent cytotoxicity (cell viability curves) [4]: little to no cytotoxicity; animals that missed doses due to body weight loss (SA3840 tumor fragments): 1 animal; Avg Bliss score (SW780): 35; Avg Bliss score (MEWO): 26; Avg Bliss score (BT-20): 4; Avg Bliss score (HCC15): 41; Avg Bliss score (OVCAR-5): 17; Avg Bliss score (T24): 38; Avg Bliss score (HCT 116 [5]): 36; Avg Bliss score (KYSE 410): 42; Avg Bliss score (SNU-1): 39; Avg Bliss score (A2058): 49; Avg Bliss score (HT 1080 [6]): 45; Avg Bliss score (SW1353 [7]): 18; Avg Bliss score (ES-2): 19
